ChEMBL document CHEMBL3399952, “Design and synthesis of novel anti-tuberculosis agents from the celecoxib pharmacophore” (Bioorg Med Chem, 2015)
Activity calls are given as the source filed them. The rule behind the calls is not given here.

Key:
[1] = test system: Mycobacterium tuberculosis; assay: Antimycobacterial activity against Mycobacterium tuberculosis H37Rv expressing Lux assessed as reduction in growth measured after 3 weeks by bioluminescence assay; assay type: functional, organism-based; conditions: 504 h
[2] = test system: Mycobacterium tuberculosis; assay: Antimycobacterial activity against Mycobacterium tuberculosis H37Rv expressing Lux infected in human macrophages assessed as reduction in growth measured at 5 to 20 uM after 3 weeks by bioluminescence assay; assay type: functional, organism-based
[3] = test system: Mycobacterium tuberculosis; assay: Antimycobacterial activity against Mycobacterium tuberculosis H37Rv expressing Lux assessed as reduction in growth measured at 5 uM after 3 weeks by bioluminescence assay; assay type: functional, organism-based
[4] = Cytotoxicity against human macrophages assessed as cell death at 20 uM by TMRE-based assay; set-up: species or system Macrophage; conditions: read-out: INH
[5] = Cytotoxicity against human macrophages assessed as cell death at 1.25 to 40 uM after 48 hrs by TMRE-based assay; conditions: macrophage
[6] = test system: Mycobacterium tuberculosis; assay: Antimycobacterial activity against Mycobacterium tuberculosis H37Rv expressing Lux infected in human macrophages assessed as […] reduction in growth measured at 5 uM after 48 hrs by bioluminescence assay; assay type: functional, organism-based
[7] = test system: Mycobacterium tuberculosis; assay: Antimycobacterial activity against Mycobacterium tuberculosis H37Rv assessed as reduction in growth measured at <= 2.5 uM after 72 hrs by CFU assay; assay type: functional
[8] = test system: Mycobacterium tuberculosis; assay: Antimycobacterial activity against Mycobacterium tuberculosis H37Rv expressing Lux infected in human macrophages assessed as reduction in growth measured at <= 2.5 uM after 72 hrs by bioluminescence assay; assay type: functional, organism-based
[9] = Cytotoxicity against human macrophages assessed as cell death at > 10 uM by TMRE-based assay; conditions: macrophage
[10] = test system: Mycobacterium tuberculosis; assay: Antimycobacterial activity against Mycobacterium tuberculosis H37Rv assessed as reduction in growth measured after 48 hrs by CFU assay; assay type: functional

Row | Structure (SMILES) | IC50 [1] | Activity [5] | fold change (FC) [7] | inhibition [8] | further results
1 | COc1nc2ccc(Br)cc2cc1[C@@H](c1ccccc1)[C@@](O)(CCN(C)C)c1cccc2ccccc12 [BEDAQUILINE] | 50 nM | – | – | – | –
2 | CNC(=O)CCc1cc(-c2ccc(-c3ccc(C(F)(F)F)cc3)cc2)n(-c2ccc(NS(=O)(=O)N(C)C)cc2)n1 | 2200 nM | – | – | – | inhibition [2]: Active; inhibition [3]: Active; cytotoxicity at 20 µM [4]: 4%
3 | CNC(=O)CCc1cc(-c2ccc(-c3ccc(C(F)(F)F)cc3)cc2)n(-c2ccc(NC(=O)c3ccnc(C)c3)cc2)n1 | 290 nM | Non-toxic | >1 | Active | inhibition [6]: Active
4 | CCc1nc2ccc(Cl)cn2c1C(=O)NCc1ccc(N2CCC(c3ccc(OC(F)(F)F)cc3)CC2)cc1 [TELACEBEC] | < 3 nM | – | – | – | –
5 | NNC(=O)c1ccncc1 [ISONIAZID] | 330 nM | – | – | – | inhibition [3]: Active
6 | O=[N+]([O-])c1cn2c(n1)OC[C@@H](OCc1ccc(OC(F)(F)F)cc1)C2 [PRETOMANID] | 400 nM | – | – | – | –
7 | CNC(=O)CCc1cc(-c2ccc(-c3ccc(C(F)(F)F)cc3)cc2)n(-c2ccc(NS(=O)(=O)NC(=O)OC(C)(C)C)cc2)n1 | – | – | – | – | inhibition [2]: Active; inhibition [3]: Active; cytotoxicity at 20 µM [4]: 26%
8 | CNC(=O)CCc1cc(-c2ccc(-c3ccc(C(F)(F)F)cc3)cc2)nn1-c1ccc(NC(=O)c2ccncc2)cc1 | 270 nM | Non-toxic | >1 | Active | inhibition [6]: Active
9 | CNC(=O)CCc1cc(-c2ccc(-c3ccc(C(F)(F)F)cc3)cc2)n(-c2ccc(NC(=O)c3ccncc3Cl)cc2)n1 | 430 nM | Non-toxic | >1 | Active | –
10 | CNC(=O)CCc1cc(-c2ccc(-c3ccc(C(F)(F)F)cc3)cc2)n(-c2ccc(NC(=O)c3ccncc3)cc2)n1 | 480 nM | Non-toxic | >1 | Active | inhibition [6]: Active
11 | CNC(=O)CCc1cc(-c2ccc(-c3ccc(C(F)(F)F)cc3)cc2)n(-c2ccc(NC(=O)c3ccc(N)cc3)cc2)n1 | 320 nM | – | >1 | Active | Activity [9]: Toxic
12 | CNC(=O)CCc1cc(-c2ccc(-c3ccc(C(F)(F)F)cc3)cc2)n(-c2ccc(NC(=O)c3cn(C)cn3)cc2)n1 | 180 nM | Non-toxic | >1 | Active | –
13 | NS(=O)(=O)Nc1ccc(-n2nc(C(F)(F)F)cc2-c2ccc3c(ccc4ccccc43)c2)cc1 | – | – | – | – | fold change (FC) [10]: 1
